What all share (format): cell-based
Assay [1] addresses EP2 subtype of the human PGE2 receptor (Homo sapiens, UniProt P43116). As to the kind of experiment: cAMP antagonism test on the human EP2 receptor (HTRF cAMP detection). The conditions noted are these: hEP2 receptor, read-out: Antagonism hEP2 IC50. In short, it runs like this: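 Read-out is a competitive HTRF for cAMP: lysate cAMP displaces cAMP-d2 from Eu cryptate-labelled antibody, and antagonism raises the 665/620 nm ratio. Compound (0.8 nM–16.5 μM) added to EP2 cells 20 min at RT before 60 min PGE2 challenge (3× stock 1.5 nM) with IBMX, followed by 20 min lysis.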
On the technique in general: TR-FRET usually uses a lanthanide donor and a delayed reading to cut background.

In assay [2] the target is T1, human PGD receptor (Homo sapiens, UniProt Q13258).
T1 sequence (Q13258 1-359): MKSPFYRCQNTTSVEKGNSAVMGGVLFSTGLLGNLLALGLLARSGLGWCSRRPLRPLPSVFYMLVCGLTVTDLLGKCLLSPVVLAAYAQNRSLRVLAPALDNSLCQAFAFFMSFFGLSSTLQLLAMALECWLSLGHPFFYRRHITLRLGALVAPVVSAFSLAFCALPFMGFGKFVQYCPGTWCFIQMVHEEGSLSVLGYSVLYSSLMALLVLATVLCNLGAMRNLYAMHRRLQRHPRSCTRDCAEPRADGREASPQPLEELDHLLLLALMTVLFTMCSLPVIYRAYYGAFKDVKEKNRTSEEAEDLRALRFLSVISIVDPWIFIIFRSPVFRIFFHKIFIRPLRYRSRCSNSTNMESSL
As to the kind of experiment: cAMP antagonism test on the human prostaglandin D receptor (HTRF cAMP detection). The conditions noted are these: selectivity towards hDP, IC50 measured by cAMP antagonism test. The procedure, abridged: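 HTRF competition read-out (665/620 nm ratio ×10000), where higher FRET means less cAMP, i.e. antagonism. Compounds (0.8 nM–16.5 μM) were preincubated 20 min at RT with cells and cAMP-d2, PGD2 (3× solution, 6 nM) in IBMX-containing PBS added for 30 min at RT, then cells lysed 20 min.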

Assay [3] has as its target EP4 subtype of the human PGE2 receptor (Homo sapiens, UniProt P35408). As to the kind of experiment: cAMP antagonism test on the human EP4 receptor (HTRF cAMP detection). The settings on record: selectivity towards hEP4, IC50 measured by cAMP antagonism test. In short, it runs like this:
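Competitive HTRF cAMP read-out (cAMP-d2 vs Eu-cryptate anti-cAMP antibody, 665/620 nm ratio) on lysed human EP4 cells. Compound (0.8 nM–16.5 μM) applied 20 min at RT before 60 min PGE2 challenge (3× solution 0.3 nM, IBMX present); 20 min lysis precedes reading.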

We go through 19 molecules from patent publication US9062041B2 (Bayer Intellectual Property GmbH, priority 2011, dated 2015).

One may read the IC50 as the concentration needed to halve the response being measured.

EP4 subtype of the human PGE2 receptor, sequence (P35408 whole entry): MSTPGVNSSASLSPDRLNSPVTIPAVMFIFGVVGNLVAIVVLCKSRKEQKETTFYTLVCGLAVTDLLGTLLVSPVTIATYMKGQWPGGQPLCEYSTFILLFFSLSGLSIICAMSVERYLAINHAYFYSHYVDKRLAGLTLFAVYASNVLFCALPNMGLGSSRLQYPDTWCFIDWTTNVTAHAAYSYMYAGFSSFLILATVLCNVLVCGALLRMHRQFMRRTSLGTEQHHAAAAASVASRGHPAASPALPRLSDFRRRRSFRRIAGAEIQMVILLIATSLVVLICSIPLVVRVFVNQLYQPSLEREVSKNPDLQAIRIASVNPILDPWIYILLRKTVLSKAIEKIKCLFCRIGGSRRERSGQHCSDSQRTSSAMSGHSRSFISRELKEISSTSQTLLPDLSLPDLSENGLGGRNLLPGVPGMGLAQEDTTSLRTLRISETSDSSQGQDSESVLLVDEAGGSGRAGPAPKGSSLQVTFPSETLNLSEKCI
EP2 subtype of the human PGE2 receptor, sequence (P43116 whole entry): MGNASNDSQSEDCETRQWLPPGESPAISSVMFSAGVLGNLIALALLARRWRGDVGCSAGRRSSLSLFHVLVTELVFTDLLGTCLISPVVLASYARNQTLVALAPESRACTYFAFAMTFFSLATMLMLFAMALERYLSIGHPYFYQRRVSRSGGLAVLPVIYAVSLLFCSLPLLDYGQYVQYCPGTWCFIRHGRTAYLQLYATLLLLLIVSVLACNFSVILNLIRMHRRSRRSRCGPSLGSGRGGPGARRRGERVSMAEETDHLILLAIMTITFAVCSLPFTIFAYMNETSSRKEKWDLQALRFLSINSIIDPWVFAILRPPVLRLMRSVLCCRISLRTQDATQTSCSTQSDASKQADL

Take `Cc1c(C(=O)NCC(C)OCC2CC2)ccc2nn(CC3CCN(C(=O)c4ccc(Oc5ccc(F)cc5)cc4)CC3)cc12` (racemic) [Example 103, (+/−)-N-[2-(cyclo-propylmethoxy)-propyl]-2-({1-[4-(4-fluorophenoxy)-benzoyl]piperidin-4-yl}-methyl)-4-methyl-2H-indazol-5-carboxamide]: in assay [1], the IC50 stood at 595 nM. In addition, the “Selectivity hEP2/hDP” value in assay [2] is recorded as “xx (xx: 10-100)”. The “Selectivity hEP2/hEP4” value in assay [3] was “xx (xx: 10-100)”.

Take `COCCNC(=O)c1ccc2nn(CC3CCN(C(=O)c4ccc(-c5ccc(C(F)(F)F)cc5)cc4)CC3)cc2c1C` [Example 360, N-(2-methoxyethyl)-4-methyl-2-[(1-{[4′-(trifluoromethyl)biphenyl-4-yl]-carbonyl}piperidin-4-yl)methyl]-2H-indazol-5-carboxamide]: in assay [1], the IC50 came out at 6.27 nM. Also, in assay [2], the “Selectivity hEP2/hDP” value is recorded as “xxx (xxx > 100)”. Further, the “Selectivity hEP2/hEP4” value in assay [3] is reported as “xxx (xxx > 100)”.

For the molecule `Cc1c(C(=O)NCCC(C)(C)O)ccc2nn(CC3CCN(C(=O)c4ccc(Cl)cc4)CC3)cc12` [Example 399, 2-{[1-(4-chlorobenzoyl)piperidin-4-yl]methyl}-N-(3-hydroxy-3-methylbutyl)-4-methyl-2H-indazol-5-carboxamide], the IC50 in assay [1] was determined as 593 nM. For the same molecule, in assay [2], the “Selectivity hEP2/hDP” value was “xx (xx: 10-100)”. Moreover, the “Selectivity hEP2/hEP4” value in assay [3] is recorded as “xx (xx: 10-100)”.

Regarding `Cc1cc2nn(CC3CN(C(=O)c4ccc(S(F)(F)(F)(F)F)cc4)C3)cc2cc1C(=O)NCC(F)(F)F` [Example 188, 6-methyl-2-({1-[4-(pentafluoro-λ^6-sulphanyl)benzoyl]azetidin-3-yl}methyl)-N-(2,2,2-trifluoroethyl)-2H-indazol-5-carboxamide], in assay [1], the IC50 turned out to be 149 nM. Further, in assay [2], the “Selectivity hEP2/hDP” value was “xxx (xxx > 100)”. For the same molecule, the “Selectivity hEP2/hEP4” value in assay [3] is “xxx (xxx > 100)”.

As for `O=C(NCCOCC1CC1)c1ccc2nn(CC3CCN(C(=O)c4ccc(Cl)cc4)CC3)cc2c1OCC(F)(F)F` [Example 235, 2-{[1-(4-chlorobenzoyl)piperidin-4-yl]methyl}-N-[2-(cyclopropylmethoxy)-ethyl]-4-(2,2,2-trifluoroethoxy)-2H-indazol-5-carboxamide], in assay [1], the IC50 stood at 16.7 nM. Moreover, in assay [2], the “Selectivity hEP2/hDP” value is listed as “xxx (xxx > 100)”. Moreover, in assay [3], the “Selectivity hEP2/hEP4” value is given as “xxx (xxx > 100)”.

For the molecule `Cc1c(C(=O)NCC2COCCO2)ccc2nn(CC3CCN(C(=O)c4ccc(Oc5ccc(C(F)(F)F)cc5)cc4)CC3)cc12` (racemic) [Example 249, (+/−)-N-(1,4-dioxan-2-ylmethyl)-4-methyl-2-[(1-{4-[4-(trifluoromethyl)phenoxy]benzoyl}piperidin-4-yl)methyl]-2H-indazol-5-carboxamide], the IC50 in assay [1] worked out at 11.2 nM. In addition, the “Selectivity hEP2/hDP” value in assay [2] is “xxx (xxx > 100)”. Further, in assay [3], the “Selectivity hEP2/hEP4” value was “xxx (xxx > 100)”.

For `COCCNC(=O)c1ccc2nn(CC3CCN(C(=O)c4ccc(C5CCCCC5)cc4)CC3)cc2c1C` [Example 335, 2-{[1-(4-cyclohexylbenzoyl)piperidin-4-yl]methyl}-N-(2-methoxyethyl)-4-methyl-2H-indazol-5-carboxamide], in assay [1], the half-inhibitory concentration (IC50) came out at 5.09 nM. The “Selectivity hEP2/hDP” value in assay [2] is “xxx (xxx > 100)”. Also, the “Selectivity hEP2/hEP4” value in assay [3] is given as “xxx (xxx > 100)”.

`Cc1c(C(=O)NCCN2CCOCC2)ccc2nn(CC3CCN(C(=O)c4ccc(S(F)(F)(F)(F)F)cc4)CC3)cc12` [Example 60, 4-methyl-N-(2-morpholinoethyl)-2-({1-[4-(pentafluoro-λ^6-sulphanyl)benzoyl]-piperidin-4-yl}methyl)-2H-indazol-5-carboxamide]: in assay [1], the IC50 was 175 nM. For the same molecule, in assay [2], the “Selectivity hEP2/hDP” value is “xx (xx: 10-100)”. In addition, the “Selectivity hEP2/hEP4” value in assay [3] is recorded as “xx (xx: 10-100)”.

Take `Cc1cc2nn(CC3CCN(C(=O)c4ccc(Oc5ccc(F)cc5)cc4)CC3)cc2cc1C(=O)NCCN1CCOCC1` [Example 78, 2-({1-[4-(4-fluoro-phenoxy)benzoyl]-piperidin-4-yl}-methyl)-6-methyl-N-(2-morpholinoethyl)-2H-indazol-5-carboxamide]: in assay [1], the half-inhibitory concentration (IC50) was 31.7 nM. The “Selectivity hEP2/hDP” value in assay [2] is “xxx (xxx > 100)”. The “Selectivity hEP2/hEP4” value in assay [3] is recorded as “xxx (xxx > 100)”.

As to `COCCNC(=O)c1ccc2nn(CC3CCN(C(=O)c4ccc(Oc5ccc(F)cc5F)cc4)CC3)cc2c1C` [Example 358, 2-({1-[4-(2,4-difluorophenoxy)benzoyl]piperidin-4-yl}methyl)-N-(2-methoxy-ethyl)-4-methyl-2H-indazol-5-carboxamide], the IC50 in assay [1] stood at 8.01 nM. In addition, the “Selectivity hEP2/hDP” value in assay [2] is reported as “xxx (xxx > 100)”. In addition, the “Selectivity hEP2/hEP4” value in assay [3] is listed as “xxx (xxx > 100)”.

`COCCNC(=O)c1ccc2nn(CC3CCN(C(=O)c4cc5ccccc5n4C)CC3)cc2c1C` [Example 29, N-(2-methoxyethyl)-4-methyl-2-({1-[(1-methyl-1H-indol-2-yl)carbonyl]-piperidin-4-yl}methyl)-2H-indazol-5-carboxamide]: the IC50 in assay [1] is 9.31 nM. For the same molecule, the “Selectivity hEP2/hDP” value in assay [2] was “xxx (xxx > 100)”. For the same molecule, in assay [3], the “Selectivity hEP2/hEP4” value was “xxx (xxx > 100)”.

As to `COCCNC(=O)c1cc2cn(CC3CN(C(=O)c4ccc(Oc5ccc(C(F)(F)F)cc5)cc4)C3)nc2cc1C` [Example 202, N-(2-methoxyethyl)-6-methyl-2-[(1-{4-[4-(trifluoromethyl)phenoxy]benzoyl}-azetidin-3-yl)methyl]-2H-indazol-5-carboxamide], in assay [1], the IC50 was determined as 5.06 nM. Further, the “Selectivity hEP2/hDP” value in assay [2] is “xxx (xxx > 100)”. Also, the “Selectivity hEP2/hEP4” value in assay [3] is recorded as “xxx (xxx > 100)”.

`Cc1c(C(=O)NCCSC(F)(F)F)ccc2nn(C[C@@H]3CCN(C(=O)c4ccc(OC(F)(F)F)cc4)C3)cc12` [Example 221, 4-methyl-2-({(R)-1-[4-(trifluoromethoxy)benzoyl]pyrrolidin-3-yl}methyl)-N-{2-[(trifluoromethyl)sulphanyl]ethyl}-2H-indazol-5-carboxamide]: in assay [1], the IC50 turned out to be 235 nM. The “Selectivity hEP2/hDP” value in assay [2] was “xx (xx: 10-100)”. The “Selectivity hEP2/hEP4” value in assay [3] is “xx (xx: 10-100)”.

`COCCNC(=O)c1ccc2nn(CC3CCN(C(=O)c4ccc(-c5ccc(Cl)cc5C)cc4)CC3)cc2c1C` [Example 371, 2-({1-[(4′-chloro-2′-methylbiphenyl-4-yl)carbonyl]piperidin-4-yl}methyl)-N-(2-methoxyethyl)-4-methyl-2H-indazol-5-carboxamide]: the IC50 in assay [1] came to 6.11 nM. The “Selectivity hEP2/hDP” value in assay [2] was “xxx (xxx > 100)”. In addition, the “Selectivity hEP2/hEP4” value in assay [3] is recorded as “xxx (xxx > 100)”.

With `Cc1c(C(=O)NCC(C)OCC2CC2)ccc2nn(CC3CCN(C(=O)c4ccc(Cl)cc4)CC3)cc12` (racemic) [Example 102, (+/−)-2-{[1-(4-chlorobenzoyl)piperidin-4-yl]methyl}-N-[2-(cyclopropylmethoxy)propyl]-4-methyl-2H-indazol-5-carboxamide], the IC50 in assay [1] was found to be 410 nM. Further, the “Selectivity hEP2/hDP” value in assay [2] is on record as “xx (xx: 10-100)”. The “Selectivity hEP2/hEP4” value in assay [3] is given as “xx (xx: 10-100)”.

On to `Cc1ccc(Oc2ccc(C(=O)N3CCC(Cn4cc5c(C)c(C(=O)NCC(F)(F)F)ccc5n4)CC3)cc2)cc1` [Example 285, 4-methyl-2-({1-[4-(4-methylphenoxy)benzoyl]piperidin-4-yl}methyl)-N-(2,2,2-trifluoroethyl)-2H-indazol-5-carboxamide], for which, in assay [1], the IC50 was found to be 100 nM. In assay [2], the “Selectivity hEP2/hDP” value is given as “xxx (xxx > 100)”. Moreover, the “Selectivity hEP2/hEP4” value in assay [3] is on record as “xxx (xxx > 100)”.

Turning to `Cc1c(C(=O)NCCN2CCOCC2)ccc2nn(CC3CCN(C(=O)c4ccc(Cl)cc4)CC3)cc12` [Example 62, 2-{[1-(4-chlorobenzoyl)piperidin-4-yl]methyl}-4-methyl-N-(2-morpholinoethyl)-2H-indazol-5-carboxamide], the IC50 in assay [1] was found to be 674 nM. The “Selectivity hEP2/hDP” value in assay [2] is given as “xx (xx: 10-100)”. The “Selectivity hEP2/hEP4” value in assay [3] is “xx (xx: 10-100)”.

On to `COc1c(C(=O)NCC(F)(F)F)ccc2nn(CC3CCN(C(=O)c4ccc(Cl)cc4)CC3)cc12` [Example 263, 2-{[1-(4-chlorobenzoyl)piperidin-4-yl]methyl}-4-methoxy-N-(2,2,2-trifluoro-ethyl)-2H-indazol-5-carboxamide], for which, in assay [1], the IC50 is 181 nM. Also, in assay [2], the “Selectivity hEP2/hDP” value is on record as “xx (xx: 10-100)”. Besides, the “Selectivity hEP2/hEP4” value in assay [3] is reported as “xx (xx: 10-100)”.

Consider `Cc1c(C(=O)NCC(F)(F)F)ccc2nn(CC3CCN(C(=O)c4ccc(Oc5ccc(F)c(F)c5)cc4)CC3)cc12` [Example 314, 2-({1-[4-(3,4-difluorophenoxy)benzoyl]piperidin-4-yl}methyl)-4-methyl-N-(2,2,2-trifluoroethyl)-2H-indazol-5-carboxamide], for which the IC50 in assay [1] turned out to be 27.8 nM. Moreover, the “Selectivity hEP2/hDP” value in assay [2] is “xxx (xxx > 100)”. Also, the “Selectivity hEP2/hEP4” value in assay [3] is recorded as “xxx (xxx > 100)”.
